Where a name gives a salt, the structure may show the parent alone.
How the values were obtained:
Assay type in all cases: in vivo
rat paw = test: AITC-induced rat paw edema assay; conditions: for ability to decrease the AITC-induced inflammatory state compared with ibuprofen: 2 percent w/w ointment topically; for time of inflammation maximum following AITC injection: 2 percent w/w ointment, vehicle edema maximum at 3 hours; for level of AITC-induced edema (volume of affected paw): AITC 100 microgram per paw, 2 percent w/w ointment topically 30 minutes before and at each time point, percentage of the control
Description: One-way analysis of variance (ANOVA) followed by Tukey's post hoc comparison.
The anti-inflammatory effect was determined using an AITC-induced rat paw edema assay. […] The ointments were additionally applied by gently rubbing on the affected paw at each time point.

mice [1] = test: Allyl isothiocyanate (AITC, TRPA1 agonist) test (topical ointment); conditions: 20 microliters 0.5 percent AITC s.c., 2 percent w/w ointment topically 5 min before, observed 10 minutes, mean±SEM
Description: (§1) Example 3 illustrates the analgesic activity of the esters evaluated using models of providing thermal stimuli (hot plate) and chemical stimuli (formalin, capsaicin and allyl isothiocyanate) to the subjects i.e., mice.
TEST 4: Allyl isothiocyanate test: The analgesic activity was evaluated by a model of chemical stimulus with the use of TRPA1 agonist—allyl isothiocyanate (AITC).
20 Microliters of 0.5 percent (w/w in 1,2-propylene glycol) AITC solution was injected subcutaneously under the skin of the dorsal surface of the right hindpaw. All compounds, including BZC, were applied topically in an ointment (2 percent weight by weight based on the total weight of formulation) prepared according to the procedure described in Example 2. The ointments were applied to the affected paws' surface by gently rubbing 5 min before analgesic activity evaluation. A corresponding amount of the ointment base were similarly applied for mice used as control animals. AITC dose was selected based on our preliminary trials and from literature citations. Animals were observed individually for 10 minutes after AITC administration. The amount of time that mice spent licking the injected paw (reaction time in seconds) was recorded and considered as an index of pain.

mice [2] = test: Formalin test, early phase (topical ointment); conditions: 20 microliter 2 percent formalin s.c., 2 percent w/w ointment topically 5 minutes before, 0 to 5 min (early phase), mean±SEM
Description: as §1
TEST 3: Formalin test: The formalin test was used to determine the potential analgesic effects of compounds for states of persistent pain in which tissue damage occurs. The nociceptive response produced by formalin is biphasic: an early response (0 to 5 min after injection) and a late response (20 to 30 minutes after injection). These two phases can be distinguished pharmacologically: phase 1 is supposed to represent a direct chemical stimulation of nociceptors while phase 2 is thought to involve inflammation. Aiming at assessment precisely response caused by a burst of activity from pain fibers we measured the licking time as an indicator of nociception only during the first (early) phase. All compounds, including BZC, were applied topically in an ointment (2 percent weight by weight based on the total weight of formulation) prepared according to the procedure described in Example 2. The ointments were applied to the affected paws' surface by gently rubbing 5 minutes before analgesic activity evaluation. A corresponding amount of the ointment base were similarly applied for mice used as control animals. After that, 20 microliter of a 2 percent formalin solution in 0.9 percent NaCl (w/w) was injected subcutaneously into the dorsal surface of the hindpaw. The animal then was placed in an individual plexiglass cage. The time spent by the animal in licking the injected paw was measured from 0 to 5 min (early phase) after formalin administration and was considered as an indicator of pain response.

mice [3] = test: Hot plate test (topical ointment); conditions: hot plate 55 degrees Celsius, 2 percent w/w ointment topically 5 min before, cut-off 60 seconds, mean±SEM
Description: as §1
TEST 1: Hot plate test: The hot plate test (HPT) is often used for investigation of a noxious stimulus (heat) in models of acute pain. Classically, the latency of the animal's response to the stimulus is recorded as the dependent variable.
All compounds, including BZC, were applied topically in an ointment (2 percent weight by weight based on the total weight of formulation) prepared according to the procedure described in Example 1. The ointments were applied both to the palmar and plantar surfaces of the paws of the mice by gently rubbing 5 min before analgesic activity evaluation. A corresponding amount of the ointment base were similarly applied for mice used as control animals. The mice were placed on a hot plate maintained at 55 degrees Celsius, one at a time. In this experiment, latency to respond to the heat stimulus was determined by the amount of time (in seconds) it took for a mouse to lick one of its paws. Cut-off time was fixed at 60 seconds to minimize the tissue damage that occurs during prolonged contact with heated surface. All values are expressed as the mean±standard errors of the mean (SEM) in all the tables.

mice [4] = test: Capsaicin test (topical ointment); conditions: capsaicin 6 micrograms/paw s.c., 2 percent w/w ointment topically 5 min before, observed 5 minutes, mean±SEM
Source text: as §1
TEST 2: Capsaicin test: Capsaicin (8-methyl-N-vanillyl-6-nonenamide), the pungent substance obtained from hot red pepper, is used to evaluate analgesic activity on mice, for compounds synthesized herein.
All compounds, including BZC, were applied topically as an ointment (2 percent weight by weight based on the total weight of formulation) prepared according to the procedure described in Example 2. The ointments were applied to the affected paws' surface by gently rubbing 5 min before analgesic activity evaluation. A corresponding amount of the ointment base were similarly applied for mice used as control animals. To evaluate analgesic activity 20 microliter of capsaicin solution in 1,2-propylene glycol (6 micrograms/paw) was injected subcutaneously under the skin of the dorsal surface of the hindpaw. Animals were observed individually for 5 minutes after capsaicin administration. The amount of time that mice spent licking the injected paw was recorded and considered as an index of pain.

SMILES | ability to decrease the AITC-induced inflammatory state compared with ibuprofen (rat paw) | time of inflammation maximum following AITC injection (rat paw) | level of AITC-induced edema (volume of affected paw) (rat paw) | Licking time (mice [1]) | Licking time (mice [2]) | Reaction time (latency to lick a paw) (mice [3]; listed as COMPOUND 1, hydrochloride) | Reaction time (latency to lick a paw) (mice [3]; listed as compound 1, hydrochloride) | Licking time (mice [4]) | Reaction time (latency to lick a paw) (mice [3]) | Reaction time (latency to lick a paw) (mice [3]; listed as BZC) | Reaction time (latency to lick a paw) (mice [3]; listed as COMPOUND 2, hydrochloride) | Reaction time (latency to lick a paw) (mice [3]; listed as compound 2, hydrochloride) | Reaction time (latency to lick a paw) (mice [3]; listed as COMPOUND 4, hydrochloride) | Reaction time (latency to lick a paw) (mice [3]; listed as compound 4, hydrochloride) | Reaction time (latency to lick a paw) (mice [3]; listed as COMPOUND 3, hydrochloride) | Reaction time (latency to lick a paw) (mice [3]; listed as compound 3, hydrochloride)
CC(C)[C@@H]1CC[C@@H](C)C[C@H]1OC(=O)CCCN [Compound 1, (1R,2S,5R)-2-isopropyl-5-methylcyclohexyl-4-aminobutyrate hydrochloride] | exceed reference drug ibuprofen | about 1.5 hours | 136% | 2.7 ± 0.3 s | 30.3 ± 7.4 s | 30.2 ± 2.6 s | about 30.2 sec | 4.3 ± 0.9 s | – | – | – | – | – | – | – | –
CC(C)Cc1ccc(C(C)C(=O)O)cc1 (stereo not drawn) [ibuprofen, reference compound] | – | about 1.5 hours | – | – | – | – | – | – | – | – | – | – | – | – | – | –
CCOC(=O)c1ccc(N)cc1 [Benzocaine, benzocaine, reference compound] | – | – | – | 48.0 ± 2.0 s | 36.3 ± 2.4 s | – | – | 28.7 ± 6.6 s | 18.3 ± 0.9 s | about 18.3 sec | – | – | – | – | – | –
Cc1ccc(C(C)C)c(OC(=O)CCCN)c1.Cl [Compound 2, 2-isopropyl-5-methylphenyl 4-aminobutyrate hydrochloride] | exceed reference drug ibuprofen | about 1.5 hours | 112% | 20.3 ± 5.8 s | 52.2 ± 6.6 s | – | – | 19.7 ± 2.6 s | – | – | 21.3 ± 0.9 s | about 21.3 sec | – | – | – | –
COc1ccccc1OC(=O)CCCN.Cl [Compound 4, 2-methoxylphenyl 4-aminobutyrate hydrochloride] | relatively comparable effects with ibuprofen | about 1.5 hours | – | 25.3 ± 1.5 s | 47.6 ± 9.8 s | – | – | 24.3 ± 3.3 s | – | – | – | – | 16.5 ± 3.7 s | about 16.5 sec | – | –
Cc1ccc(C(C)C)cc1OC(=O)CCCN.Cl [Compound 3, 5-isopropyl-2-methylphenyl 4-aminobutyrate hydrochloride] | relatively comparable effects with ibuprofen | about 1.5 hours | – | 22.8 ± 4.3 s | 31.1 ± 8.3 s | – | – | 12.0 ± 1.2 s | – | – | – | – | – | – | 19.3 ± 3.8 s | about 19.3 sec

Reference: US20180008717A1, “PHARMACEUTICAL COMPOSITION WITH ANALGESIC AND ANTI-INFLAMMATORY ACTIVITY” (priority 2016, published 2018)
